Data reported in patent US8653098B2, “Pyrazolopyridine PI3K inhibitor compounds and methods of use” (Genentech, Inc., priority 2008, dated 2014).

What was measured:
MDA-MB-361.1 = assay: In Vitro Cell Proliferation Assay (CellTiter-Glo), MDA-MB-361.1; assay type: cell-based; settings: MDA-MB-361.1, Breast, mutation status PI3K
Protocol: (§1) The in vitro potency of Formula I exemplary compounds was measured by the cell proliferation assay, CellTiter-Glo® Luminescent Cell Viability Assay, commercially available from Promega Corp., Madison, Wis. (Example 33). This homogeneous assay method is based on the recombinant expression of Coleoptera luciferase (U.S. Pat. No. 5,583,024; U.S. Pat. No. 5,674,713; U.S. Pat. No. 5,700,670) and determines the number of viable cells in culture based on quantitation of the ATP present, an indicator of metabolically active cells (Crouch et al (1993) J. Immunol. Meth. 160:81-88; U.S. Pat. No. 6,602,677).
(§2) format, making it amenable to automated high-throughput screening (HTS) (Cree et al (1995) Anti Cancer Drugs 6:398-404). The homogeneous assay procedure involves adding the single reagent (CellTiter-Glo® Reagent) directly to cells cultured in serum-supplemented medium. Cell washing, removal of medium and multiple pipetting steps are not required. The system detects as few as 15 cells/well in a 384-well format in 10 minutes after adding reagent and mixing.
(§3) The homogeneous “add-mix-measure” format results in cell lysis and generation of a luminescent signal proportional to the amount of ATP present. The amount of ATP is directly proportional to the number of cells present in culture. The CellTiter-Glo® Assay generates a “glow-type” luminescent signal, produced by the luciferase reaction, which has a half-life generally greater than five hours, depending on cell type and medium used. Viable cells are reflected in relative luminescence units (RLU). The substrate, Beetle Luciferin, is oxidatively decarboxylated by recombinant firefly luciferase with concomitant conversion of ATP to AMP and generation of photons. The extended half-life eliminates the need to use reagent injectors and provides flexibility for continuous or batch mode processing of multiple plates. This cell proliferation assay an be used with various multiwell formats, e.g. 96 or 384 well format. Data can be recorded by luminometer or CCD camera imaging device. The luminescence output is presented as relative light units (RLU), measured over time.
(§4) Efficacy of Formula I compounds were measured by a cell proliferation assay employing the following protocol (Promega Corp. Technical Bulletin TB288; Mendoza et al (2002) Cancer Res. 62:5485-5488):
(§5) 1. An aliquot of 100 n1 of cell culture containing about 10^4 cells (PC3, Detroit562, or MDAMB361.1) in medium was deposited in each well of a 384-well, opaque-walled plate.
(§6) 2. Control wells were prepared containing medium and without cells.
(§7) 3. The compound was added to the experimental wells and incubated for 3-5 days.
(§8) 4. The plates were equilibrated to room temperature for approximately 30 minutes.
(§9) 5. A volume of CellTiter-Glo Reagent equal to the volume of cell culture medium present in each well was added.
(§10) 6. The contents were mixed for 2 minutes on an orbital shaker to induce cell lysis.
(§11) 7. The plate was incubated at room temperature for 10 minutes to stabilize the luminescence signal.
(§12) 8. Luminescence was recorded and reported in graphs as RLU=relative luminescence units.
(§13) Alternatively, cells were seeded at optimal density in a 96 well plate and incubated for 4 days in the presence of test compound. Alamar Blue™ was subsequently added to the assay medium, and cells were incubated for 6 h before reading at 544 nm excitation, 590 nm emission. EC50 values were calculated using a sigmoidal dose response curve fit.
(§14) The anti-proliferative effects of Formula I exemplary compounds were measured by the CellTiter-Glo® Assay against various tumor cell lines, including the following: […]

PC3 = assay: In Vitro Cell Proliferation Assay (CellTiter-Glo), PC3; assay type: cell-based; settings: Homo sapiens, PC-3; PC3, Prostate, mutation status PTEN
Protocol: as §1, §2, §3, §4, §5, §6, §7, §8, §9, §10, §11, §12, §13, §14

p110 alpha PI3K = biological target: T1, p110 alpha PI3K (Homo sapiens, UniProt P42336); assay: p110α (alpha) PI3K Binding Assay (fluorescence polarization; alternatively radiometric); assay type: biochemical; settings: tested for PI3K activity according to the methods of this invention
T1 construct: purchased Upstate Cell Signaling Solutions, Charlottesville, Va
T1 sequence (P42336 whole entry): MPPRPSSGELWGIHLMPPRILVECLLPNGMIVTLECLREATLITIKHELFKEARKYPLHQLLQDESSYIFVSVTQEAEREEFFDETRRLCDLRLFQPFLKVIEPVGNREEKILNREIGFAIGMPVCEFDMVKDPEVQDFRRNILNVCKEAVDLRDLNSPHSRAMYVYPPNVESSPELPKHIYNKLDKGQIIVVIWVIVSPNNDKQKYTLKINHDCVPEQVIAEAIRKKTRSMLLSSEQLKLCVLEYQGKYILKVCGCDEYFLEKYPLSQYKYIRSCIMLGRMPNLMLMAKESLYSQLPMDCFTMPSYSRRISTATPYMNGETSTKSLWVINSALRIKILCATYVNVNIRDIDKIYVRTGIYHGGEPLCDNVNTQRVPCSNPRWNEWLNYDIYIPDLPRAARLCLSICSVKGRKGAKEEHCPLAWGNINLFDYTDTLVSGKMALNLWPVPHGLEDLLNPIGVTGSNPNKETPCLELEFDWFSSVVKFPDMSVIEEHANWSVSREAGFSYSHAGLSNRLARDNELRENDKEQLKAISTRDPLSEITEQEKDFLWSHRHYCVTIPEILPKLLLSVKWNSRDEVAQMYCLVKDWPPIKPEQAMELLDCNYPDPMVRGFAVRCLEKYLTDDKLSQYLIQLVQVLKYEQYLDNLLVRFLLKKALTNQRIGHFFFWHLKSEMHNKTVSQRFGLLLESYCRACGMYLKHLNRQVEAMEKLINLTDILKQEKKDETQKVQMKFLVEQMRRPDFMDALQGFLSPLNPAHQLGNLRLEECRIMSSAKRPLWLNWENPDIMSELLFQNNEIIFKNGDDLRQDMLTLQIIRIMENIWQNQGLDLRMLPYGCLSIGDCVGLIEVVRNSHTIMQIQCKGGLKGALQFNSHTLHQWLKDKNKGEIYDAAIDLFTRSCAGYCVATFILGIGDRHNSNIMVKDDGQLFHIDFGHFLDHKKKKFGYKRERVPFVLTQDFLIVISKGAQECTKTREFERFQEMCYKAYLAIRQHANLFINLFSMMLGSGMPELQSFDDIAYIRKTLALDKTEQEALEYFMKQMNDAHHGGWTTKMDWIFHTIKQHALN
T1 sequence (P27986 whole entry partner): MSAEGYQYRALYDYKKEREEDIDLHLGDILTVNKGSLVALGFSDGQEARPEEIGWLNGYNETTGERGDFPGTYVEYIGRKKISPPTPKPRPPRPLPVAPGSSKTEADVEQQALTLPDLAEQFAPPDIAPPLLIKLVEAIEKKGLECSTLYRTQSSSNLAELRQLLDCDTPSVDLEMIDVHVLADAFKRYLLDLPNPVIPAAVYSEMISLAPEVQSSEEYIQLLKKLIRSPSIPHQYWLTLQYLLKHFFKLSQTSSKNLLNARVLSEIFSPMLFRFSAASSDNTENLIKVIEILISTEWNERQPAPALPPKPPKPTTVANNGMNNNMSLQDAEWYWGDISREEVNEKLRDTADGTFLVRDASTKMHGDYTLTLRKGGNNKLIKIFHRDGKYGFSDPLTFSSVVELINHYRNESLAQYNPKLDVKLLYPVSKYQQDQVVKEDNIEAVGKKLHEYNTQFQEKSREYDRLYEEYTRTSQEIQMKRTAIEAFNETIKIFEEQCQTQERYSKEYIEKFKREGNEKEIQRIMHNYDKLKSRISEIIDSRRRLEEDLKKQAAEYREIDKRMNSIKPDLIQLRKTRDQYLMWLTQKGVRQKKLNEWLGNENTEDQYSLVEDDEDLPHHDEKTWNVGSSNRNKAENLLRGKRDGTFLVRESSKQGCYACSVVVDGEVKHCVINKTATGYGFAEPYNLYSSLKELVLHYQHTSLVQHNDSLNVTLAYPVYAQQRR
Protocol: Binding Assays: Initial polarization experiments were performed on an Analyst HT 96-384 (Molecular Devices Corp, Sunnyvale, Calif.). Samples for fluorescence polarization affinity measurements were prepared by addition of 1:3 serial dilutions of p110 alpha PI3K (Upstate Cell Signaling Solutions, Charlottesville, Va.) starting at a final concentration of 20 ug/mL in polarization buffer (10 mM Tris pH 7.5, 50 mM NaCl, 4 mM MgCl2, 0.05% Chaps, and 1 mM DTT) to 10 mM PIP2 (Echelon-Inc., Salt Lake City, Utah.) final concentration. After an incubation time of 30 minutes at room temperature, the reactions were stopped by the addition of GRP-1 and PIP3-TAMRA probe (Echelon-Inc., Salt Lake City, Utah.) 100 nM and 5 nM final concentrations respectively. […] This experiment also establishes the appropriate protein concentration to use in subsequent competition experiments with inhibitors.
Inhibitor IC50 values were determined by addition of the 0.04 mg/mL p110 alpha PI3K (final concentration) combined with PIP2 (10 mM final concentration) to wells containing 1:3 serial dilutions of the antagonists in a final concentration of 25 mM ATP (Cell Signaling Technology, Inc., Danvers, Mass.) in the polarization buffer. After an incubation time of 30 minutes at room temperature, the reactions were stopped by the addition of GRP-1 and PIP3-TAMRA probe (Echelon-Inc., Salt Lake City, Utah.) 100 nM and 5 nM final concentrations respectively.
Alternatively, inhibition of PI3K was determined in a radiometric assay using purified, recombinant enzyme and ATP at a concentration of 1 uM. The Formula I compound was serially diluted in 100% DMSO. The kinase reaction was incubated for 1 h at room temperature, and the reaction was terminated by the addition of PBS. IC50 values were subsequently determined using sigmoidal dose-response curve fit (variable slope).

Row | EC50 (MDA-MB-361.1) | EC50 (PC3) | IC50 (p110 alpha PI3K) | SMILES
1 | 0.965 µM | 0.881 µM | – | Cn1ncc2c(Oc3ccc(S(C)(=O)=O)cc3)cc(-c3cccc4[nH]ncc34)nc21 [Compound 101, 6-(1H-indazol-4-yl)-1-methyl-4-(4-(methylsulfonyl)phenoxy)-1H-pyrazolo[3,4-b]pyridine]
2 | – | – | 0.224 µM | Cn1ncc2c(Oc3ccc(S(C)(=O)=O)cc3)cc(-c3ccc4[nH]ncc4c3)nc21 [Compound 102, 6-(1H-indazol-5-yl)-1-methyl-4-(4-(methylsulfonyl)phenoxy)-1H-pyrazolo[3,4-b]pyridine]
3 | – | – | 0.0828 µM | CCCNc1cc(-c2cccc3[nH]ncc23)nc2c1cnn2C [Compound 103, 6-(1H-indazol-4-yl)-1-methyl-N-propyl-1H-pyrazolo[3,4-b]pyridin-4-amine]
4 | 0.475 µM | 2 µM | 0.00223 µM | Cn1ncc2c(Nc3ccc(S(C)(=O)=O)cc3)cc(-c3cccc4[nH]ncc34)nc21 [Compound 104, 6-(1H-indazol-4-yl)-1-methyl-N-(4-(methylsulfonyl)phenyl)-1H-pyrazolo[3,4-b]pyridin-4-amine]
5 | – | – | 0.0137 µM | Cn1ncc2c(Oc3ccc(S(C)(=O)=O)cc3)cc(-c3cccc4c(N)n[nH]c34)nc21 [Compound 105, 7-(1-methyl-4-(4-(methylsulfonyl)phenoxy)-1H-pyrazolo[3,4-b]pyridin-6-yl)-1H-indazol-3-amine]
6 | – | – | 0.399 µM | Cc1cccc(C)c1Oc1cc(-c2cccc3[nH]ncc23)nc2c1cnn2C [Compound 106, 4-(2,6-dimethylphenoxy)-6-(1H-indazol-4-yl)-1-methyl-1H-pyrazolo[3,4-b]pyridine]
7 | – | – | 0.053 µM | COc1cccc(Oc2cc(-c3cccc4[nH]ncc34)nc3c2cnn3C)c1 [Compound 107, 6-(1H-indazol-4-yl)-4-(3-methoxyphenoxy)-1-methyl-1H-pyrazolo[3,4-b]pyridine]
8 | – | – | 0.016 µM | COc1ccc(Oc2cc(-c3cccc4[nH]ncc34)nc3c2cnn3C)cc1OC [Compound 108, 4-(3,4-dimethoxyphenoxy)-6-(1H-indazol-4-yl)-1-methyl-1H-pyrazolo[3,4-b]pyridine]
9 | 1 µM | 2.4 µM | – | CNC(=O)c1cccc(-c2cc(-c3cccc4[nH]ncc34)nc3c2cnn3C)c1 [Compound 111, 3-(6-(1H-indazol-4-yl)-1-methyl-1H-pyrazolo[3,4-b]pyridine-4-yl)-N-methylbenzamide]
10 | 0.749 µM | 0.561 µM | – | Cn1ncc2c(-c3cccc(NS(C)(=O)=O)c3)cc(-c3cccc4[nH]ncc34)nc21 [Compound 113, N-(3-(6-(1H-indazol-4-yl)-1-methyl-1H-pyrazolo[3,4-b]pyridin-4-yl)phenyl)methanesulfonamide]
11 | 0.346 µM | 0.75 µM | – | Cn1ncc2c(-c3ccc(S(C)(=O)=O)cc3)cc(-c3cccc4[nH]ncc34)nc21 [Compound 115, 6-(1H-indazol-4-yl)-1-methyl-4-(4-(methylsulfonyl)phenyl)-1H-pyrazolo[3,4-b]pyridine]
12 | – | – | 0.0475 µM | COc1ccc(-c2cc(Oc3ccc(S(C)(=O)=O)cc3)c3cnn(C)c3n2)cn1 [Compound 117, 6-(6-methoxypyridin-3-yl)-1-methyl-4-(4-(methylsulfonyl)phenoxy)-1H-pyrazolo[3,4-b]pyridine]
13 | 2.4 µM | 4.9 µM | – | COc1cc(-c2cc(Oc3ccc(S(C)(=O)=O)cc3)c3cnn(C)c3n2)ccn1 [Compound 118, 6-(2-methoxypyridin-4-yl)-1-methyl-4-(4-(methylsulfonyl)phenoxy)-1H-pyrazolo[3,4-b]pyridine]
14 | – | – | 0.575 µM | Cn1ncc2c(Oc3ccc(S(C)(=O)=O)cc3)cc(-c3ccnc(O)c3)nc21 [Compound 120, 4-(1-methyl-4-(4-(methylsulfonyl)phenoxy)-1H-pyrazolo[3,4-b]pyridin-6-yl)pyridin-2-ol]
15 | – | – | 0.153 µM | Cn1ncc2c(Oc3ccc(S(C)(=O)=O)cc3)cc(-c3cccc4c(N)noc34)nc21 [Compound 121, 7-(1-methyl-4-(4-(methylsulfonyl)phenoxy)-1H-pyrazolo[3,4-b]pyridin-6-yl)benzo[d]isoxazol-3-amine]
